The results in this text go back to ChEMBL document CHEMBL4373732, “Phosphatidylinositol 3 kinase (PI3K) inhibitors as new weapon to combat cancer” (Eur J Med Chem, 2019).

The structures appear in SMILES notation.

The target in experiment [1] is T1, Phosphatidylinositol 4,5-bisphosphate 3-kinase catalytic subunit gamma isoform (Homo sapiens, UniProt P48736). Kind of experiment: Reversible competitive inhibition of PI3K p110gamma (unknown origin).
Experiment [2] deals with T2, Phosphatidylinositol 4,5-bisphosphate 3-kinase catalytic subunit beta isoform (Homo sapiens, UniProt P42338).
For experiment [3], the target named is T3, Phosphatidylinositol 4,5-bisphosphate 3-kinase catalytic subunit delta isoform (Homo sapiens, UniProt O00329).
T3 sequence (O00329 whole entry): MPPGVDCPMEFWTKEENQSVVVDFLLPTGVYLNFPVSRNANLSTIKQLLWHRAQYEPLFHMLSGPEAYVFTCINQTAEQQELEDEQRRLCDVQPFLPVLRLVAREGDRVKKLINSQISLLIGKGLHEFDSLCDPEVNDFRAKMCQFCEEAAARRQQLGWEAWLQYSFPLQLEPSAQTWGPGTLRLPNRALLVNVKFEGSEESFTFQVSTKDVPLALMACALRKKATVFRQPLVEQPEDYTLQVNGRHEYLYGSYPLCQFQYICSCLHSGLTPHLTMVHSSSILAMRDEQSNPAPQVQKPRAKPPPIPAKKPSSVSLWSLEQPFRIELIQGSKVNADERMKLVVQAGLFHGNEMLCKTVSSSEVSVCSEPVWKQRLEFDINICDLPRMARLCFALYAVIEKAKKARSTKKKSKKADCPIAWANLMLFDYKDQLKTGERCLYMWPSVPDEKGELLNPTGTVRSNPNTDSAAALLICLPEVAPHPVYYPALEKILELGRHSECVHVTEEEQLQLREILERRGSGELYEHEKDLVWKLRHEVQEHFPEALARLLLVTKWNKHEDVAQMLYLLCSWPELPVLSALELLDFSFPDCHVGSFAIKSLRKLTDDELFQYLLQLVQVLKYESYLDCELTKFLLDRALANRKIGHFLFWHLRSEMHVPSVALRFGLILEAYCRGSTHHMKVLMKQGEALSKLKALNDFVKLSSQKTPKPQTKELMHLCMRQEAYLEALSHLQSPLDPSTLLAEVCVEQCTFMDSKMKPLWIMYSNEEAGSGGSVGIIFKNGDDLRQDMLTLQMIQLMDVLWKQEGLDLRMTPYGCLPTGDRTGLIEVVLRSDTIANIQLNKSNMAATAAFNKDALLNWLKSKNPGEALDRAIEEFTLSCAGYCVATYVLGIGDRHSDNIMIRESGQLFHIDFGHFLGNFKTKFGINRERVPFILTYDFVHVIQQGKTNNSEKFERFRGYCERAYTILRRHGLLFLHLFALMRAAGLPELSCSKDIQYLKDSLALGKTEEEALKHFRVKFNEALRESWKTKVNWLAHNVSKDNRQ
The experiment in a line: Inhibition of PI3Kdelta (unknown origin).

In experiment [4] the target is T1, Phosphatidylinositol 4,5-bisphosphate 3-kinase catalytic subunit gamma isoform. Kind of experiment: Inhibition of PI3K p110gamma (unknown origin).
Experiment [5] has as its target Phosphatidylinositol 4,5-bisphosphate 3-kinase catalytic subunit alpha isoform (Homo sapiens, UniProt P42336). The experiment in a line: Inhibition of PI3K p110alpha (unknown origin).
The target in experiment [6] is T3, Phosphatidylinositol 4,5-bisphosphate 3-kinase catalytic subunit delta isoform. Kind of experiment: Inhibition of PI3K p110delta (unknown origin).
Experiment [7] addresses T2, Phosphatidylinositol 4,5-bisphosphate 3-kinase catalytic subunit beta isoform. The experiment in a line: Inhibition of PI3K p110beta (unknown origin).
In experiment [8] the target is Serine/threonine-protein kinase mTOR (Homo sapiens, UniProt P42345).

The term IC50 denotes the concentration that gives 50% inhibition. High values mean a need for much substance, low ones inhibition by little substance.

T1 sequence (P48736 whole entry, canonical isoform): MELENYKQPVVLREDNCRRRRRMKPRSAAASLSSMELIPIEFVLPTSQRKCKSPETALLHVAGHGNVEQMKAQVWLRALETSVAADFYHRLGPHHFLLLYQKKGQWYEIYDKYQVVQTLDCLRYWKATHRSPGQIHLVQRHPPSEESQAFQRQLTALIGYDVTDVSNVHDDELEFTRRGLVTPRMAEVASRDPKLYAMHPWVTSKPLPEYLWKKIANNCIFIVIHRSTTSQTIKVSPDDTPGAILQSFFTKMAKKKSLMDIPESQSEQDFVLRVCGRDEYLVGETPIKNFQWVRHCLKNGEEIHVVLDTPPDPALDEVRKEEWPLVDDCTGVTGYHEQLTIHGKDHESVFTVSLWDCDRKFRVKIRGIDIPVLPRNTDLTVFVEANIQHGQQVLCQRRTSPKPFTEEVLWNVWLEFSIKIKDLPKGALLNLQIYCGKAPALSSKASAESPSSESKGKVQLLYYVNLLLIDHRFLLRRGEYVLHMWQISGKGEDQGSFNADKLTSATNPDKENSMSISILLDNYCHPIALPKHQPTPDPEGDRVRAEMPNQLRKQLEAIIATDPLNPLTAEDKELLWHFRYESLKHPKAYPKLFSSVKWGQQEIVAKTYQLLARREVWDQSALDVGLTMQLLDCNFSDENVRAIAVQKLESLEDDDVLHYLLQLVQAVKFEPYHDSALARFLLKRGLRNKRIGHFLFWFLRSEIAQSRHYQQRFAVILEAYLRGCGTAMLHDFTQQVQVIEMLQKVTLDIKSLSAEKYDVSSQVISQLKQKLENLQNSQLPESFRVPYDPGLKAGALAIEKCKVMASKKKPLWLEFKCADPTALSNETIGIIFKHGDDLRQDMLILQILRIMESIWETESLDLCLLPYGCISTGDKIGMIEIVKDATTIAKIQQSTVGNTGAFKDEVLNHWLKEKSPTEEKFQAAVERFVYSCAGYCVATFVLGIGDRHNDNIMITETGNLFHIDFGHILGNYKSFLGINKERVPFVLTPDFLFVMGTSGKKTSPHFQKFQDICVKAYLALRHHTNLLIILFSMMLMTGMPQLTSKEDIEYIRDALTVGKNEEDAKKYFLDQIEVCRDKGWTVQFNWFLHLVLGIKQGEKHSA
T2 sequence (P42338 whole entry, canonical isoform): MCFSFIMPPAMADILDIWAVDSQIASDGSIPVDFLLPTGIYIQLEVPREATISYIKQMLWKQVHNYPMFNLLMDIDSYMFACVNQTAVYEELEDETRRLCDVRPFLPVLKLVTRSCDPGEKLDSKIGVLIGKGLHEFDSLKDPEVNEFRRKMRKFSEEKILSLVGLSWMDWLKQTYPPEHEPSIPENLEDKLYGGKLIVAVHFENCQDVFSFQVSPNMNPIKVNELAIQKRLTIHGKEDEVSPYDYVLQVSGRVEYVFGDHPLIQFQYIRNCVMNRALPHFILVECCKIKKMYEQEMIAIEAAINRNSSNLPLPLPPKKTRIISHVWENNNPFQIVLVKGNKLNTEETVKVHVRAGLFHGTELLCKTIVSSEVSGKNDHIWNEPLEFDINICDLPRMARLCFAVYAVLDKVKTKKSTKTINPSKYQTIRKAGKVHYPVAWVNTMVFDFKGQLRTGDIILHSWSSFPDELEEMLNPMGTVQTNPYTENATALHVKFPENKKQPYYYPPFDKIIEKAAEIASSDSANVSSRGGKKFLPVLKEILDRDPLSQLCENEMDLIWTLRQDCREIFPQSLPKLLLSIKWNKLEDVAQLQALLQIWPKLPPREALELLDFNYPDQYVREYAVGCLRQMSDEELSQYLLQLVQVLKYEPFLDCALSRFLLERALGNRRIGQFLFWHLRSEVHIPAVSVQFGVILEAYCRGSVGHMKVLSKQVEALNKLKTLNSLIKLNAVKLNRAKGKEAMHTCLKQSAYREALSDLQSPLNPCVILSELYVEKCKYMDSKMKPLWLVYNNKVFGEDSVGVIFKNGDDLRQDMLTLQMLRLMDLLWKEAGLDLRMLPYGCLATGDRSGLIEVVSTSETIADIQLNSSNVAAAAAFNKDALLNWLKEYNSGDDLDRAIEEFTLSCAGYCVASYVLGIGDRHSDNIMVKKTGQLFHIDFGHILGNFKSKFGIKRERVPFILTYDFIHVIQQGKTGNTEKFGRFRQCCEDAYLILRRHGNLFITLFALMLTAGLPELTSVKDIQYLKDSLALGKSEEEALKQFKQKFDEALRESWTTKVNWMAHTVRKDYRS
Sequence of Phosphatidylinositol 4,5-bisphosphate 3-kinase catalytic subunit alpha isoform (P42336 whole entry, canonical isoform): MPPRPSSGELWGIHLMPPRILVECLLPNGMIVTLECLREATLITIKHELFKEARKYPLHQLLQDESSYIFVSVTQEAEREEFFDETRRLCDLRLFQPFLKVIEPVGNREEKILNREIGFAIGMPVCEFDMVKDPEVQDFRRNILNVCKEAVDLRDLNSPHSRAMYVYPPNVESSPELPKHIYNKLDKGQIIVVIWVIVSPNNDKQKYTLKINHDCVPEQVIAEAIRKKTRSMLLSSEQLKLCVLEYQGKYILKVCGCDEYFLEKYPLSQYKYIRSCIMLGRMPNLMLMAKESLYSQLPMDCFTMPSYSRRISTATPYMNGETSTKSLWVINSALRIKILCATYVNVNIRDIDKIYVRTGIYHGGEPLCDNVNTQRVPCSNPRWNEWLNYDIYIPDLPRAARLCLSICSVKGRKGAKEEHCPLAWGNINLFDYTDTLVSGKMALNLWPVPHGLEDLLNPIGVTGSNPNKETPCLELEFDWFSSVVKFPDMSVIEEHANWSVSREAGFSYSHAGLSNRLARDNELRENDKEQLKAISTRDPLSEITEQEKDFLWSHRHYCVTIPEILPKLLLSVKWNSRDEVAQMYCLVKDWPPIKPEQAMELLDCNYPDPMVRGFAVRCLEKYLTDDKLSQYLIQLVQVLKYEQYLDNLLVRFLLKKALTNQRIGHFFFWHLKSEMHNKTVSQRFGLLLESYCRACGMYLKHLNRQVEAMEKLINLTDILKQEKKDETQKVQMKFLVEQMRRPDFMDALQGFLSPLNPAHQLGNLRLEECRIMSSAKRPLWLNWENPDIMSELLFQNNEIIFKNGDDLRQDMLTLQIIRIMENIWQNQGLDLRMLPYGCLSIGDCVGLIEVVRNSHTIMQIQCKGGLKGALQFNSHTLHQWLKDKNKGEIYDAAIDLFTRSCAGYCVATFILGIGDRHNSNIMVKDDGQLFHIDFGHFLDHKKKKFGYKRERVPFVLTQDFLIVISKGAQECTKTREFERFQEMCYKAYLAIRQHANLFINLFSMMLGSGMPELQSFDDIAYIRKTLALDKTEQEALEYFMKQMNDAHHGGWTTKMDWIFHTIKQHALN

As for `COc1ccc(Cl)c(Nc2nc3ccccc3nc2NS(=O)(=O)c2cccc(NC(=O)C(C)(C)N)c2)c1` [PILARALISIB], the results for the IC50 in experiment [1] and in experiment [2] were 383 nM and 36 nM, respectively.

Consider `C[C@H](Nc1ncnc2[nH]cnc12)c1nc2ccc(F)cc2c(=O)n1-c1ccccc1` [ACALISIB], for which the half-inhibitory concentration (IC50) in experiment [3] was determined as 12.7 nM.

Regarding `CCn1c(=O)c(-c2cc[nH]n2)cc2c(C)nc(N)nc21` [VOXTALISIB], the IC50 in experiment [4] turned out to be 9 nM; in experiment [5], 39 nM; in experiment [6], 43 nM; in experiment [7], 113 nM; in experiment [8], 157 nM.
